The values that follow are results of earlier work, collected in patent publication US9669111B2, “Device for the diagnosis of inflammatory tissues in dental applications” (THOMMEN MEDICAL AG, priority 2012, dated 2017).

Structures are written as SMILES. Where a name gives a salt, the structure may show the parent alone.

One data set relates to human tongue. To be noted: for concentration sensed down to (taste recognition): human tongue, average human.
The test system of data set [1] is human volunteers (bitter taste). Particulars: reciprocal of the dilution barely noticed as bitter; reference for calibration.

For the compound `C=C[C@H]1C[N@@]2CC[C@H]1C[C@H]2[C@H](O)c1ccnc2ccc(OC)cc12` [quinine], the sensory recognition threshold entry in the data set on human tongue (human) is reported as “about 0.0004 mmol/L”.
In the case of `O=C1NS(=O)(=O)c2ccccc21` [saccharin], in the data set with human tongue, the “concentration sensed down to (taste recognition)” value is reported as 0.02 mM.
As to `C=C[C@H]1C[N@@]2CC[C@H]1C[C@H]2[C@H](O)c1ccnc2ccc(OC)cc12` [quinine-HCl], the bitter value in data set [1] was 200,000.
Turning to `C=C[C@H]1C[N@@]2CC[C@H]1C[C@H]2[C@H](O)c1ccnc2ccc(OC)cc12` [Quinine sulfate], the “concentration sensed down to (taste recognition)” value in the data set with human tongue is listed as 0.0004 mM.
